Data published in publication PMC9143043, “Synthesis and Biological Evaluation of 5′-O-Fatty Acyl Ester Derivatives of 3′-Fluoro-2′,3′-dideoxythymidine as Potential Anti-HIV Microbicides” (Molecules, 2022).
Where two headings read alike, the source gives them in different places.

What was measured:
[1] = system: cell-associated HIV-1 IIIB (infected SulT1 cells); experiment: Cell-associated transmission assay (IIIB); type: cell-based; conditions: Human immunodeficiency virus 1, IIIB, read-out: (CA) EC50, Table 2; cell-associated transmission assay (IIIB)
Procedure: (§1) Anti-HIV activities of the compounds were evaluated according to the previously reported procedure. In summary, the HeLa (Human cervical carcinoma: ATCC CCL-2.1) cell line was used to measure the inactivation of both the cell-free virus preparations and virus-infected cell preparations. The cells were plated in culture plates 24 h prior to each experiment. Cell-free viral preparations of HIV-1 strains IIIB (lymphocytotropic strain) and BaL (monocytotropic strain) were used for the cell-free assay. For the cell-associated assay, the SulT1 cells were infected with IIIB virus 5 days prior to the experiment. Cell-free virus and virus-infected cells were mixed with different compounds and diluted to make different concentrations. The mixture was further diluted with the buffer and added to the HeLa cells.

[2] = pKa by dip-probe absorption spectroscopy (D-PAS); type: physicochemical; conditions: methanol-water co-solvent, Yasuda-Shedlovsky extrapolation
Procedure: Physicochemical properties including pKa, Log D, and solubility were determined for 5 (as a model compound). […] It was not possible to measure the partition coefficient (Log P) of the fatty acyl derivatives of FLT and AZT in a standard n-octanol/water mixture because of the insolubility of the compounds in water. The cLog P value was calculated as 5.23 using ChemDraw. […] Since most of 5 is in its neutral form, the Log D value will correspond to the Log P value.
The pKa for 5 was determined using dip-probe absorption spectroscopy (D-PAS). The sample was initially titrated in a fast titration between pH 1.8 and pH 12.1 at concentrations of 33–49 µM under aqueous conditions. Precipitation of the sample from the solution was observed below approximately pH 11. The sample was subsequently titrated under methanol–water co-solvent conditions in two triple titrations from pH 12.2 to pH 3.7 at concentrations of 31–49 µM. The methanol ratio varied from to 25.5–50.8%. No precipitation of the sample from the solution was observed under this condition. The pKa was determined from the spectroscopic data by the Yasuda–Shedlovsky extrapolation of the individual obtained results.

HIV-1 A-17 MDR (B-NNRTI) = experiment: PBMC multi-round infection assay, resistant isolate A-17; type: cell-based
Procedure: (§2) Based on a preliminary screening, conjugates 5 and 8 were evaluated for their ability to inhibit a drug-resistant virus in a peripheral blood mononuclear cell (PBMC) assay. In this assay, FLT, 5, and 8 were tested against B- and C-wild type and A-17 and 4755–5 multidrug-resistant (MDR) clinical isolates of HIV-1, where compounds were incubated with PBMCs for 6 h and then washed off before the addition of the virus and further culture for 7 days.
(§3) For the assessment of compounds against the wild type (WT; R5; clones = 94US3393IN [B subtype] and 98USMSC5016 [C subtype]) and drug-resistant (clones = 4755−5 and A17) HIV-1 clinical isolates, PHA-P stimulated cells from at least two normal donors were pooled, diluted in fresh media, and plated in the interior wells of a 96-well round-bottom microplate. Pooling PBMCs from more than one donor was used to minimize the variability observed between the individual donors, which results from the quantitative and qualitative differences in HIV infection and overall response to the PHA and IL-2 of primary lymphocyte populations. Each plate contained virus/cell control wells (cells + virus), experimental wells (drug + cells + virus), and compound control wells (drug + media, no cells, necessary for MTS monitoring of cytotoxicity). Test drug dilutions were prepared in microtiter tubes, and each concentration was placed in appropriate wells. Following the addition of the drug dilutions to the PBMCs, a predetermined dilution of virus stock was then placed in each test well (final MOI ≅ 0.1). Because HIV-1 is not cytopathic to PBMCs, the same assay plate can be used for both the antiviral efficacy and cytotoxicity measurements. Compounds were incubated with virus and cells in a 96-well format for 6 h. The cells were then washed by removing 75% of the medium (150 μL) and replacing it with 150 μL of fresh (no drug) medium. The plates were then centrifuged (∼200 g) for 10 min, after which 150 μL of the medium was removed, and an additional 150 μL of fresh medium was added to each well and further incubated for 6 days or until peak reverse transcriptase (RT) activity was detected. A microtiter plate-based RT reaction was utilized. Incorporated radioactivity (counts per minute, CPM) was quantified using standard liquid scintillation techniques. Compound IC50 (50%, inhibition of virus replication) was calculated using statistical software and regression analysis. A cellular uptake study was conducted for fluorescence conjugates 23 and 24 using a previously published procedure with minor modifications. All of the experiments were conducted in triplicate.

[3] = system: HIV-1 strain IIIB (lymphocytotropic strain); experiment: Single-round infection assay, cell-free X4 virus (lymphocytotropic strain); type: cell-based; conditions: read-out: (X4) EC50, Table 2, single-round infection assay
Procedure: as §1

Cytotoxicity assay (MTS) = type: cell-based; conditions: human, HeLa cells (ATCC CCL-2.1), Table 2; MTS; 50% effective concentration
[4] = Solubility (shake-flask, UV detection; organic solvents); type: physicochemical
Procedure: Solubility for 5 was investigated by the shake-flask methodology with UV-spectroscopic sample detection. To produce a saturated solution of 5, approximately 1 mg of solid material was added to 10 mL of an aqueous solution, which was adjusted to pH 2.3 with 0.5 M HCl. The sample was then sonicated in an ultrasonic bath for several hours (at room temperature) before being left to equilibrate for a period of approximately 3 days. The supernatant was then filtered under vacuum through a 0.2 µm PVDF filter plate, and the UV absorption spectrum of the sample was measured (after adjusting the pH of the solution to 11.8 with 0.5 M KOH). Molar absorption coefficients of 5 were obtained at pH 11.8 for 25 µM, 50 µM, and 100 µM solutions of 5, in order to quantify the concentration of the sample in the saturated supernatant. […] However, 5 was less soluble in DMSO (~4.1 mg/mL).

HIV-1 4755-5 MDR (B-MDR) = experiment: PBMC multi-round infection assay, resistant isolate 4755-5; type: cell-based
Procedure: as §2, §3

[5] = system: HIV-1 94US3393IN (B-Wild Type); experiment: PBMC multi-round infection assay, clinical isolate 94US3393IN; type: cell-based; conditions: Human immunodeficiency virus 1
Procedure: as §2, §3

[6] = Human immunodeficiency virus 1, PBMC

Compound: Cc1cn([C@H]2C[C@H](F)[C@@H](COC(=O)CCCCCCCCCCCN=[N+]=[N-])O2)c(=O)[nH]c1=O [Compound 5, 3′-fluoro-2′,3′-dideoxy-5′-O-(12-azidododecanoyl)thymidine]
- EC50 [1]: 12.6 µM
- pKa [2]: 9.67
- IC50 (HIV-1 A-17 MDR (B-NNRTI); [6]): 0.0044 µM
- IC90 (HIV-1 A-17 MDR (B-NNRTI); [6]): 0.0141 µM
- fold more potent than FLT against A-17 (HIV-1 A-17 MDR (B-NNRTI); versus FLT IC50): at least 6 fold
- EC50 ([3]; Human immunodeficiency virus 1, IIIB): ≤ 1 µM
- EC50 [3]: 0.9 µM
- EC50 (Cytotoxicity assay (MTS)): 1600 µM
- solubility ([4]; DMSO, organic solvent or mixture, DMSO, read-out: solubility in DMSO): ~4100 µg/mL
- solubility ([4]; aqueous solution adjusted to pH 2.3, pH 2.3, aqueous buffer, thermodynamic from solid, shake-flask, UV detection, read-out: aqueous solubility (upper limit)): ≤ 0.51 µM
- solubility ([4]; ethanol, organic solvent or mixture, ethanol, read-out: solubility in ethanol): > 30000 µg/mL
- solubility in water/methanol (60:40) ([4]; mixture of water/methanol (60:40)): completely soluble
- IC50 (HIV-1 4755-5 MDR (B-MDR); [6]): 0.0396 µM
- IC90 (HIV-1 4755-5 MDR (B-MDR); [6]): 0.507 µM
- fold more potent than FLT against 4755-5 (HIV-1 4755-5 MDR (B-MDR); versus FLT IC50): ≥ 2.7 fold
- IC50 [5]: 0.0011 µM
- IC90 [5]: 0.0064 µM
